In article PMC10464297, “Reevaluation of bromodomain ligands targeting BAZ2A” (Protein Science : A Publication of the Protein Society, 2023):
Entries after “also recorded” stand apart in the source; their conditions may differ.

Key:
PC3 spheroids = experiment: Spheroid growth (3D), PC3; assay type: cell-based
Description: Cell cultures, proliferation assay and spheroid gro wth […]
streptomycin and 2 m M L-glutamine. All cells were regularly tested for mycoplasma contamination. […]
Spheroids were obtained by plating PC3 and 22Rv1 cells in low -adhesion round bottom 96 -well […]
(§1) After seeding, the cells were centrifuged for 10 min at 1200 x g at 4°C. Spheroids were given 48 hours to form after seeding before adding the treatment or the carrier (0.1% DMSO). Medium supplemented with treatment/carrier was changed every 48 hours, for a total of 32 days for 22Rv1 and 16 days for PC3. Each spheroid was imaged in brightfield every day or every other day (after day 20), using a Leica DM IL microscope […]
(§2) equipped with a Leica DFC450C digital camera. The area of each spheroid was measured using ImageJ and the average area for each condition was calculated. The growth rate was analysed using the segmental linear regression algorithm of GraphPad Prism. The appropriateness of the model was evaluated by considering the R square values and the Replicates test (Suppl. Table 6). […]

[1] = test system: panel of receptors, channels and transporters; design: method as in https://www.thesgc.org/chemical-probes/BAZ2-ICR; conditions: ref https://www.thesgc.org/chemical-probes/BAZ2-ICR; cited from earlier work
22Rv1 spheroids = experiment: Spheroid growth (3D), 22Rv1; assay type: cell-based
Description: Cell cultures, proliferation assay and spheroid gro wth
PC3 and 22Rv1 cells were cultured in RPMI 1640 medium containing 10% FBS, 1% penicillin-streptomycin and 2 m M L-glutamine. All cells were regularly tested for mycoplasma contamination. […]
as §1, with “Spheroids were obtained by plating PC3 and 22Rv1 cells in low -adhesion round bottom 96 -well plates. For 22Rv1, 2500 cells/well were seeded in 200 µl RPMI 1640; for PC3, 250 cells/well were seeded in 200 µl RPMI 1640 supplemented with 1.5% Matrigel. After” for “After”
as §2

PCa cells = experiment: RT-qPCR of genes affected by BAZ2A genetic ablation; assay type: cell-based; conditions: 25 μM, 6 days, PC3 and 22Rv1
Description: equipped with a Leica DFC450C digital camera. The area of each spheroid was measured using ImageJ and the average area for each condition was calculated. The growth rate was analysed using the segmental linear regression algorithm of GraphPad Prism. The appropriateness of the model was evaluated by considering the R square values and the Replicates test (Suppl. Table 6).
Cells were counted and plated in 6 well (for RNA extraction) or 96 well (for growth curve) at a […]
and 4.5x10^3 cells/well for 22Rv1) and let attach overnight at 37°C, 5% CO2. […] The gene expression was analyzed after 6 days from the cells seeded in the 6 well, while the viability was analyzed in the same way as for the cells treated with the […]
Cells were previously counted and plated in 6 well at a fixed amount (60.000 cells/well for PC3; 135.000 cells/well for 22Rv1). The RNA was extracted using the phenol-chloroform method and its concentration was measured by Nano spectrophotometer. […]
Total protein content was extracted from cells transfected with siRNA B AZ2A or siRNA RLU C (negative control). […] Cells were lysed using RIPA buffer and protein concentration was determined by Bradford Reagent (Sigma-Aldrich), according to the manufacturer’s instructions. […]

[2] = test system: heterogeneous PCa cell population; design: method as in Peña‐Hernández et al., [2021]; conditions: ref Peña‐Hernández et al., [2021]; cited from earlier work
TNBC cells = test system: TNBC cells; design: method as in Bevill et al., [2019]; conditions: single agent; ref Bevill et al., [2019]; cited from earlier work
[3] = 3D setting, GSK2801 25 μM, BAZ2‐ICR 25 μM, BI9564 20 μM

## Cn1cc(CCn2cnc(-c3cnn(C)c3)c2-c2ccc(C#N)cc2)cn1 [BAZ2‐ICR]
PC3 spheroids; [3]
  effect on growth of PC3 spheroids: did not significantly affect PC3 spheroids
PC3 spheroids; PC3 spheroids, 25 µM, after X0 = day 6
  slope2 (segmental linear regression of spheroid growth): 77288
PC3 spheroids; PC3 spheroids, 25 µM, before X0 = day 6
  slope1 (segmental linear regression of spheroid growth): 62282
[1]
  profile on panel of receptors, channels and transporters: clean
22Rv1 spheroids; [3]
  effect on growth of 22Rv1 spheroids: similarly affect the growth of 22Rv1 cells; also recorded: interestingly impacting those deriving from 22Rv1 cells
22Rv1 spheroids; 22Rv1 spheroids, 25 µM, after X0 = day 9
  slope2 (segmental linear regression of spheroid growth): 10618
22Rv1 spheroids; 22Rv1 spheroids, 25 µM, before X0 = day 9
  slope1 (segmental linear regression of spheroid growth): 17642
PCa cells
  transcription of a set of genes affected by BAZ2A genetic ablation: did not comparably alter the transcription
[2]
  proliferation of heterogeneous PCa cell population: does not affect the proliferation
TNBC cells
  effect on TNBC cells: did not affect TNBC cells
